From US20110053995A1, “BENZENESULFONANILIDE COMPOUND INHIBITORS OF UREA TRANSPORTERS” (THE REGENTS OF THE UNIVERSITY OF CALIFORNIA, priority 2006, published 2011)

Test system: RBCs from wild-type mice
Assay: Osmotic water permeability, RBCs from wild-type mice
Format: cell-based, mouse
Details: inhibitors 25 μM, phloretin 0.7 mM, 10° C.
Method: FIGS. 8A-B illustrate UT-B-facilitated water transport by ‘chemical UT-B knock-out’. Osmotic water permeability was measured from the time course of RBC volume in response to a 250-mM inwardly directed sucrose gradient. FIG. 8A presents representative traces of mouse RBC water permeability performed at 10° C., with genotypes and conditions indicated. Inhibitors ureainh-201 and ureainh-302 were used at 25 μM. FIG. 8B presents osmotic water permeability coefficients (Pf) from experiments as illustrated in FIG. 8A (±SE, 3-7 curves per group of RBCs pooled from 4 mice per genotype). *, P<0.01 compared with no inhibitor; #, P<0.01 compared with wild-type (no inhibitor).
RBC urea and water permeabilities were assayed by stopped-flow light scattering using a Hi-Tech Sf-51 instrument (Wiltshire, UK). For measurement of urea permeability, dilutions of whole blood (human or mouse; see Example 1) in PBS (hematocrit: approximately 0.5%) were incubated with test compounds for 5 min and then subjected to a 250-mM inwardly directed gradient of urea. After an initial osmotic shrinking phase, the kinetics of increasing cell volume caused by urea influx were measured as the time-course of 90° scattered light intensity at 530 nm, with increasing cell volume resulting in reduced scattered light intensity. As a positive control, 0.7 mM phloretin was added to the RBC suspension prior to stopped-flow experiments. Measurements of water permeability were carried out similarly, with sucrose (cell-impermeant) used instead of urea to establish a 250-mM osmotic gradient. As a positive control, HgCl2 (0.3 mM) was added to the RBC suspension prior to stopped-flow measurements. Osmotic water permeability coefficients (Pf) were computed from light scattering data as described (van Hoek et al., J Biol Chem. 267:18267-69 (1992)).
This example describes chemical knock-out of UT-B by UT-B inhibitors in RBCs and the effect on UT-B-facilitated Water transport. […] Osmotic water permeability was measured by stopped-flow light scattering in RBCs from wild-type and AQP1-null mice as shown in FIG. 8A. […] AQP1-null RBCs had greater than 5-fold reduced Pf compared to wild-type RBCs.

Compound | effect on water transport
NC(=O)CSc1oc(-c2ccccc2)nc1S(=O)(=O)c1ccc(Br)cc1 [ureainh-101] | little effect on water transport
Cc1ccc(Nc2nnc(-c3ccc(C(N)=O)cc3)c3ccccc23)cc1 [ureainh-302] | little effect on water transport
